Measured values as given in ChEMBL document CHEMBL5154900, “Design and Synthesis of Dual EZH2/BRD4 Inhibitors to Target Solid Tumors” (J Med Chem, 2022).
pIC50: −log10 of the molar value. Active and inactive are the calls of the source. The calls are words filed in the database; no cut-off is given here.

Key:
[1] = biological target: T1, Histone-lysine N-methyltransferase EZH2 (Homo sapiens, UniProt Q15910); test: Inhibition of EZH2 in human ASPC1 cells assessed as decrease in H3K27me3 levels at 1 uM incubated for 72 hrs by Western blot analysis; type: cell-based
T1 sequence (Q15910 whole entry, looked up): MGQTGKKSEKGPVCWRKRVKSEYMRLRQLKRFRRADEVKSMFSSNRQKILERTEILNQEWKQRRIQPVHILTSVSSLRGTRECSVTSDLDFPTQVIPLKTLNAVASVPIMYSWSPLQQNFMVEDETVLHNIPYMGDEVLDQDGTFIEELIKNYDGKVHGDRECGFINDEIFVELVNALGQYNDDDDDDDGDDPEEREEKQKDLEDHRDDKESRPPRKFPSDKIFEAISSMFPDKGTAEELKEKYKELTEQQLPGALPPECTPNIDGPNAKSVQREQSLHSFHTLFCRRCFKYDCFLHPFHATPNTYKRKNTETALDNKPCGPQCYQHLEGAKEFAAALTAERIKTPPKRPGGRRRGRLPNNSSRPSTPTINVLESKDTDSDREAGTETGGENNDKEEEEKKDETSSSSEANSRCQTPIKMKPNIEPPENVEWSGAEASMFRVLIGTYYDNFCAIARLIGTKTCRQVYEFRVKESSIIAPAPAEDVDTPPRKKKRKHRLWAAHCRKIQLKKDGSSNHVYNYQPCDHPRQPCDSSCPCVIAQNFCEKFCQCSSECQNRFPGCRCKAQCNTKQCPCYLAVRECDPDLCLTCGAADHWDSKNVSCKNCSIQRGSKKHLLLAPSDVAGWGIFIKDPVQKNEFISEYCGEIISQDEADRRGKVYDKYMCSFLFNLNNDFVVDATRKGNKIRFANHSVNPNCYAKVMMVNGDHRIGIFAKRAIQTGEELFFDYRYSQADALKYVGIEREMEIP

[2] = biological target: T2, Bromodomain-containing protein 4 (Homo sapiens, UniProt O60885); test: Inhibition of BRD4 in human ASPC1 cells assessed as decrease in c-Myc level at 1 uM incubated for 72 hrs by Western blot analysis; type: cell-based
[3] = biological target: T1, Histone-lysine N-methyltransferase EZH2; test: Binding affinity to EZH2 in human A549 cell lysate assessed as increase in thermal stability at 10 uM incubated for 1 hr followed by temperature treatment at 45 to 54.5 degC for 3 mins by thermal shift assay; type: subcellular; settings: time 63.0 min
[4] = biological target: T2, Bromodomain-containing protein 4; test: Binding affinity to BRD4 in human A549 cell lysate assessed as increase in thermal stability at 10 uM incubated for 1 hr followed by temperature treatment at 45 to 54.5 degC for 3 mins by thermal shift assay; type: subcellular; settings: time 63.0 min
[5] = test system: A549; test: Inhibition of EZH2/BRD4 in human A549 cell lysate assessed as ternary complex formation at 1 uM preincubated for 24 hrs for 30 mins followed by DSP treatment by co-immunoprecipitation method; type: subcellular; settings: time 24.5 hrs
[6] = test system: A549; test: Antiproliferative activity against human A549 cells assessed as inhibition of cell proliferation at 1 uM incubated for 4 days by cell counter method; type: functional, cell-based; settings: time 4.0 day
[7] = test system: HCT-116; test: Antiproliferative activity against human HCT-116 cells assessed as inhibition of cell proliferation at 1 uM incubated for 4 days by cell counter method; type: functional, cell-based; settings: time 4.0 day
[8] = test system: HCT-116; test: Antitumor activity against human HCT-116 cells assessed as inhibition of colony formation measured after 12 to 20 days by crystal violet staining based analysis; type: functional, cell-based; settings: dose <= 0.4 µM, time 12-20 day, DDE = dose-dependent effect
[9] = test system: A549; test: Antitumor activity against human A549 cells assessed as inhibition of colony formation measured after 12 to 20 days by crystal violet staining based analysis; type: functional, cell-based; settings: dose <= 0.4 µM, time 12-20 day, DDE = dose-dependent effect
[10] = biological target: T1, Histone-lysine N-methyltransferase EZH2; test: Inhibition of EZH2 in human HCT-116 cells assessed as decrease in H3K27me3 level at 0.05 uM incubated for 72 hrs by Western blot analysis; type: cell-based
[11] = biological target: T2, Bromodomain-containing protein 4; test: Inhibition of BRD4 in human A549 cells assessed as increase in p21 levels incubated for 72 hrs by Western blot analysis; type: cell-based; settings: dose <= 2.5 µM, DDE = dose-dependent effect
[12] = test system: ASPC1; test: Induction of cell cycle arrest in 24 hr starved human ASPC1 cells assessed as accumulation at G0/G1 phase at 1 uM measured after 48 hrs by PI staining based flow cytometric analysis; type: functional
[13] = test system: ASPC1; test: Induction of apoptosis in human ASPC-1 cells assessed as downregulation of Bcl-2 protein at 1 uM inubated for 72 hrs by Western blot analysis; type: functional, cell-based
[14] = test system: HCT-116; test: Induction of apoptosis in human HCT116 cells assessed as upregulation of p21 protein at 1 uM inubated for 72 hrs by Western blot analysis; type: functional, cell-based
[15] = test system: A549; test: Induction of apoptosis in human A549 cells assessed as downregulation of Bcl-xl protein at 1 uM inubated for 72 hrs by Western blot analysis; type: functional, cell-based
[16] = test system: A549; test: Induction of apoptosis in human A549 cells assessed as upregulation of p21 protein at 1 uM inubated for 72 hrs by Western blot analysis; type: functional, cell-based
[17] = Half life in 12 hr fasted BALB/c mouse at 80 mg/kg, ip measured for 0.083 to 24 hrs by UPLC-MS/MS analysis; type: ADME, organism-based; settings: in vivo, time 0.083-24 hrs
[18] = Cmax in 12 hr fasted BALB/c mouse at 80 mg/kg, ip measured for 0.083 to 24 hrs by UPLC-MS/MS analysis; type: ADME, organism-based; design: dose 80 mg/kg, time upper 24 hrs, time lower 0.083 hrs, route ip; settings: in vivo
[19] = AUC in 12 hr fasted BALB/c mouse at 80 mg/kg, ip measured for 0.083 to 24 hrs by UPLC-MS/MS analysis; type: ADME, organism-based; design: time lower 0.083 hrs, dose 80 mg/kg, time upper 24 hrs, route ip; settings: in vivo
[20] = Half life in 12 hr fasted BALB/c mouse at 80 mg/kg, po measured for 0.083 to 24 hrs by UPLC-MS/MS analysis; type: ADME, organism-based; settings: in vivo, time 0.083-24 hrs
[21] = Tmax in 12 hr fasted BALB/c mouse at 80 mg/kg, po measured for 0.083 to 24 hrs by UPLC-MS/MS analysis; type: ADME, organism-based; settings: in vivo, time 0.083-24 hrs
[22] = Cmax in 12 hr fasted BALB/c mouse at 80 mg/kg, po measured for 0.083 to 24 hrs by UPLC-MS/MS analysis; type: ADME, organism-based; design: dose 80 mg/kg, time 0.083-24 hrs, route po; settings: in vivo
[23] = Bioavailability in 12 hr fasted BALB/c mouse at 80 mg/kg, po measured for 0.083 to 24 hrs by UPLC-MS/MS analysis; type: ADME, organism-based; settings: in vivo, time 0.083-24 hrs
[24] = test system: ASPC1; test: Antiproliferative activity against human ASPC1 cells assessed as cell growth inhibition incubated for 6 days by MTS assay; type: functional, cell-based; settings: ASPC1, 144 h, read-out: IC50
[25] = test system: ASPC1; test: Effect on ADRB2 mRNA levels in human ASPC1 cells at 5 uM incubated for 48 hrs by RT-qPCR analysis; type: functional, cell-based
[26] = test system: A549; test: Effect on ADRB2 mRNA levels in human A549 cells at 5 uM incubated for 48 hrs by RT-qPCR analysis; type: functional, cell-based
[27] = test system: ASPC1; test: Effect on TXINP mRNA levels in human ASPC1 cells at 5 uM incubated for 48 hrs by RT-qPCR analysis; type: functional, cell-based
[28] = test system: ASPC1; test: Effect on TNFRSF21 mRNA levels in human ASPC1 cells at 5 uM incubated for 48 hrs by RT-qPCR analysis; type: functional, cell-based
[29] = test system: HCT-116; test: Effect on TNFRSF21 mRNA levels in human HCT-116 cells at 5 uM incubated for 48 hrs by RT-qPCR analysis; type: functional, cell-based
[30] = test system: ASPC1; test: Effect on TRHDE mRNA levels in human ASPC1 cells at 5 uM incubated for 48 hrs by RT-qPCR analysis; type: functional, cell-based
[31] = test system: HCT-116; test: Induction of cell cycle arrest in 24 hr starved human HCT-116 cells assessed as accumulation at G0/G1 phase at 1 uM measured after 48 hrs by PI staining based flow cytometric analysis; type: functional
[32] = test system: A549; test: Induction of cell cycle arrest in 24 hr starved human A549 cells assessed as accumulation at G0/G1 phase at 1 uM measured after 48 hrs by PI staining based flow cytometric analysis; type: functional
[33] = test system: ASPC1; test: Antitumor activity against human ASPC1 cells xenografted in BALB/c mouse assessed as tumor growth inhibition at 80 mg/kg, ip administered 3 times weekly for 28 days and measured every 3 days relative to control; type: functional; design: scale not given: the % may be the effect or the level left; settings: time 28 day
[34] = test system: A549; test: Antitumor activity against human A549 cells xenografted in BALB/c mouse assessed as reduction in tumor volume at 60 mg/kg, ip administered 6 times weekly for 38 days and measured every 3 days relative to control; type: functional; design: scale not given: the % may be the effect or the level left; settings: time 38 day
[35] = test system: A549; test: Antitumor activity against human A549 cells xenografted in BALB/c mouse assessed as reduction in tumor weight at 60 mg/kg, ip administered 6 times weekly for 38 days relative to control; type: functional; design: scale not given: the % may be the effect or the level left; settings: time 38 day
[36] = Toxicity in BALB/c mouse xenografted with human A549 cells assessed as body weight loss at 60 mg/kg, ip administered 6 times weekly for 38 days; type: organism-based; settings: in vivo, 912 h, time 38 day

inhibition [1]: Active
inhibition [2]: Active
Activity [3]: Active
Activity [4]: Active
inhibition [5]: Active
inhibition [10]: Active
inhibition [11]: Dde
half-life [17]: 3.81 h
Cmax [18]: 27100 ng/mL
AUC [19]: 273 µg·h/mL
half-life [20]: 4.16 h
Tmax [21]: 1 h
Cmax [22]: 4380 ng/mL
bioavailability [23]: 4.94%
pIC50 [24]: 6.16
SMILES: CCN(c1cc(-c2ccc(OCCCCCNC(=O)C[C@@H]3N=C(c4ccc(Cl)cc4)c4c(sc(C)c4C)-n4c(C)nnc43)cc2)cc(C(=O)NCc2c(C)cc(C)[nH]c2=O)c1C)C1CCOCC1
Activity [6]: Active
Activity [7]: Active
Activity [8]: Dde
Activity [9]: Dde
Activity [12]: Active
Activity [13]: Active
Activity [14]: Active
Activity [15]: Active
Activity [16]: Active
Activity [25]: Active
Activity [26]: Active
Activity [27]: Active
Activity [28]: Active
Activity [29]: Active
Activity [30]: Active
Activity [31]: Active
Activity [32]: Active
Activity [33]: 38.6%
Activity [34]: 63.4%
Activity [35]: 57.8%
Activity [36]: Non-Toxic
